Type in all cases: functional, cell-based
The test system of one assay is SGC-7901. In words: Antiproliferative activity against human SGC7901 cells by MTT assay. For orientation: Tetrazolium dyes change colour on reduction, which living cells bring about.
The subject of the next assay is HL-60. In words: Antiproliferative activity against human HL60 cells by tryphan blue assay.
In another assay the test system is PC-3. In words: Antiproliferative activity against human PC3 cells by MTT assay.

In the case of `COc1ccc2c3c([nH]c2c1)-c1nc2ccccc2c(=O)n1CC3`, the IC50 with SGC-7901, with HL-60 and in the assay on PC-3 was more than 10 µM throughout.

As to `COc1ccc2c3c([nH]c2c1)C(=O)NCC3`, the IC50 in the assay on SGC-7901, in the assay on HL-60 and in the assay on PC-3 was more than 10 µM throughout.

`COc1cc(Cc2cncs2)cc(OC)c1O`: the IC50 with SGC-7901, with HL-60 and with PC-3 was more than 10 µM in each case.

Turning to `COc1ccc2c3ccnc4cc(C)c(=O)n(c2c1)c43`, the IC50 in the assay on SGC-7901, in the assay on HL-60 and in the assay with PC-3 was more than 10 µM in each case.

For the compound `COc1ccc2c3c([nH]c2c1)C(c1cnc2ccccc2c1)=NCC3`, the IC50 in the assay with SGC-7901, in the assay on HL-60 and in the assay on PC-3 was more than 10 µM throughout.

In turn, `COc1ccc2c(c1)[nH]c1c(CO)nccc12` came in with an IC50 in the assay with HL-60 of 4.36 µM.

`CCc1nccc2c1[nH]c1cc(OC)ccc12`: the IC50 in the assay with HL-60 was 9.05 µM.

As to `COC(=O)N1CC[C@@]2(O)c3ccc(OC)cc3N(C(=O)OC)[C@@]12C`, the IC50 in the assay on SGC-7901, in the assay with HL-60 and with PC-3 was more than 10 µM each time.

As to `COC(=O)N1c2cc(OC)ccc2[C@@]2(O)CCN[C@@]12C`, the IC50 with SGC-7901, in the assay with HL-60 and with PC-3 was more than 10 µM each time.

With `COC(=O)/C=C1/c2[nH]c3cc(OC)ccc3c2CCN1C(C)=O`, the IC50 in the assay with SGC-7901, in the assay on HL-60 and with PC-3 was more than 10 µM throughout.

Take `COc1ccc2c(c1)[nH]c1c(C(N)=O)nccc12`: the IC50 with SGC-7901, in the assay with HL-60 and in the assay with PC-3 was more than 10 µM in each case.

In the case of `COc1ccc2c3c([nH]c2c1)C(C)=[N+]([O-])CC3`, the IC50 in the assay on SGC-7901, in the assay on HL-60 and with PC-3 was more than 10 µM in each case.

With `COC(=O)N1CC[C@]2(O)c3ccc(OC)cc3N(C(=O)OC)[C@]12C`, the IC50 in the assay with SGC-7901, with HL-60 and in the assay with PC-3 was more than 10 µM throughout.

Regarding `COc1ccc2c(c1)[nH]c1c(C)[n+]([O-])ccc12`, the IC50 with SGC-7901, in the assay on HL-60 and in the assay on PC-3 was more than 10 µM in each case.

On to `COc1ccc2c3c([nH]c2c1)-c1cc(CO)cc(=O)n1CC3`, for which the IC50 with SGC-7901, in the assay on HL-60 and in the assay with PC-3 was more than 10 µM each time.

In the assay on HL-60, `COc1ccc2c3c([nH]c2c1)-c1cccc(=O)n1CC3` displayed an IC50 of 9.25 µM.

In the case of `COC(=O)N1c2cc(OC)ccc2[C@]2(O)CCN[C@]12C`, the IC50 in the assay on SGC-7901, in the assay with HL-60 and in the assay with PC-3 was more than 10 µM each time.

In the case of `COc1cc(Cc2cnc(C)s2)cc(OC)c1O`, the IC50 in the assay on SGC-7901, in the assay with HL-60 and in the assay with PC-3 was more than 10 µM each time.

For `COc1ccc2c(c1)[nH]c1c(C(C)=O)nccc12` [ARENARINE C], the IC50 in the assay with SGC-7901, in the assay with HL-60 and in the assay with PC-3 was more than 10 µM each time.

Regarding `COc1ccc2c3c([nH]c2c1)C(C)=NCC3` [HARMALINE], the IC50 in the assay with SGC-7901, in the assay on HL-60 and in the assay with PC-3 was more than 10 µM in each case.

With `Cc1nccc2c1[nH]c1ccccc12` [HARMAN], the IC50 in the assay on SGC-7901, in the assay on HL-60 and in the assay on PC-3 was more than 10 µM throughout.

As for `COC(=O)c1nccc2c1[nH]c1cc(OC)ccc12` [HARMIC ACID METHYL ESTER], the IC50 in the assay on SGC-7901, in the assay with HL-60 and in the assay on PC-3 was more than 10 µM each time.

One may read the IC50 as the concentration that gives 50% inhibition. The low end stands for higher potency, the high end for lower potency.

The values above are taken from ChEMBL document CHEMBL4033607, “Structurally Diverse Alkaloids from the Seeds of Peganum harmala” (J Nat Prod, 2017).
